Experimental data reported in patent US9314468B2, “Chemokine receptor modulators” (Altiris Therapeutics, Inc., priority 2008, dated 2016).
Where a name gives a salt, the structure may show the parent alone.

How the values were obtained:
CXCR4 [1] = molecular target: T1, CXCR4 (Homo sapiens (Human), UniProt P61073); test: Functional calcium mobilization assay (SDF-1α induced); format: cell-based; conditions: Table 9, selected compounds; read-out: Ca Flux IC50
Method: Functional modulation of CXCR4 was determined by calcium mobilization assay using leukemic lymphoid CEM cells, which naturally express high levels of CXCR4. Generally, the assay is carried out as follows: Cells are grown in vitro to confluency. On the day of the assay, cells are removed from the incubator, culture medium removed and replaced with a calcium sensitive dye (Calcium3 assay kit; Molecular Devices, Sunnyvale, Calif.). The cells are allowed to dye load for 45-60 min at 37° C. in the cell culture incubator and then allowed to equilibrate to room temperature for no more than 15 min before assay.
Compound plates were generated containing up to 3% dimethyl sulfoxide in media kept at room temperature. Test compounds were added to the cells at a 1:3 dilution, and calcium mobilization was measured using a Flex Station fluorescence imager (Molecular Devices). This first read was used to determine direct agonist activation of the CXCR4 receptor by the test compounds. […] Full dose response curves were generated daily for SDF-1a to calculate IC50 concentrations. The IC50 values are reported. In cases, where one was not determined, a percent inhibition at the 1 μM concentration was extrapolated.
Functional calcium mobilization assay was conducted as described in Example 27.

[2] = Cytotoxicity assay, 6 days; format: cell-based; conditions: human, CCRF-CEM cells
Method: Cytotoxicity of the compounds was assessed by the following assay. CCRF-CEM cells in media (RPMI 1640, 15% FBS, Pen/Strep., 1% non-essential amino acids) are incubated with various concentrations of test compound for 6 days undisturbed. Cell number relative to no compound controls is determined using either Serotec's “Alamar blue” per manufacturers protocol or Promega's “Cell Titer 96 Aqueous One Solution Cell Proliferation Assay” kit per manufacturers protocol. The number cells not surviving after test compound administration is determined for each concentration tested and the EC50 (concentration of compound in which 50% of the cells survive) is determined

hERG potassium channel = hERG potassium channel (Homo sapiens (Human), UniProt Q12809); test: hERG potassium channel current, automatic patch clamp; format: cell-based; conditions: human, mammalian cells expressing hERG potassium channel
Chain of hERG potassium channel (Q12809 whole entry): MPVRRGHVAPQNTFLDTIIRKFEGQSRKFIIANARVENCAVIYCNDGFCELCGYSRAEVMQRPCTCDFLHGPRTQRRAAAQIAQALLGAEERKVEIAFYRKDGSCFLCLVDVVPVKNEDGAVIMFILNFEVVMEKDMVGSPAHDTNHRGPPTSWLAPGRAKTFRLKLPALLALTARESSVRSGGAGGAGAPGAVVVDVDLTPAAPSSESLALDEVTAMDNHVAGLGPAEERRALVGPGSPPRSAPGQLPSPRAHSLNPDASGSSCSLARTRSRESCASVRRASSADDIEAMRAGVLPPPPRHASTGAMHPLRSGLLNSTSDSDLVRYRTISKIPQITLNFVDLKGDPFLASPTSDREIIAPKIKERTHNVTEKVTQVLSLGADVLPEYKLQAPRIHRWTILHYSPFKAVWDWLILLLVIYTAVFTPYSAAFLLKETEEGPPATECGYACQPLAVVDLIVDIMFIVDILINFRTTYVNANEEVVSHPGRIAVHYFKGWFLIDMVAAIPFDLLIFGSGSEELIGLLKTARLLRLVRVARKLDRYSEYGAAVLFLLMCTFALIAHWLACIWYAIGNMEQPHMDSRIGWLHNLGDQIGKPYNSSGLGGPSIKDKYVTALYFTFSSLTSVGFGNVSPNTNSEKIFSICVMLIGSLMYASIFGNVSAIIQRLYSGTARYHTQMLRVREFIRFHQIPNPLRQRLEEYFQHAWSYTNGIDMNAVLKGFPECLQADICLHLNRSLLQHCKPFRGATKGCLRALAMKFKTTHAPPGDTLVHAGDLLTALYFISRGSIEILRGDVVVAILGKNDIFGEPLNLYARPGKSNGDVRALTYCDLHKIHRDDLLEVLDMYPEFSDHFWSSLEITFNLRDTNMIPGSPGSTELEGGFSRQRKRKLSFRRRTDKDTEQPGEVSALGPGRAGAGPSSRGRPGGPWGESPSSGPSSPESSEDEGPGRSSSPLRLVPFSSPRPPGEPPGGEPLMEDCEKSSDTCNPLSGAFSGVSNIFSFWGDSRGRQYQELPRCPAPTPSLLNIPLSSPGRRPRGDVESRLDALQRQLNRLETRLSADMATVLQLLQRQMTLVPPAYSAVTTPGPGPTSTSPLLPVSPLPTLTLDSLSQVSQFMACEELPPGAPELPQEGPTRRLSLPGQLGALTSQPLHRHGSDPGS
Method: (§1) The in vitro effects of the selected compounds on the hERG (human ether-á-go-go-related gene) potassium channel current (a surrogate for IKr, the rapidly activating, delayed rectifier cardiac potassium current) expressed in mammalian cells were evaluated at room temperature using the PatchXpress 7000A (Molecular Devices), an automatic parallel patch clamp system.

T-tropic HIV = test: Phenoscreen HIV entry inhibition assay; format: cell-based; conditions: Human immunodeficiency virus 1, read-out: IC50 for viral entry inhibition
Method: A selected set of compounds are tested for their ability to inhibit the cellular entry of T-tropic HIV. The assay for this inhibition is carried out on a contractual basis at Monogram Biosciences, Inc. using their well established Phenoscreen™ assay. Briefly, HIV strains of interest are tagged with a luciferase indicator gene to create an appropriate test vector. The test vector is amplified through transfection and the resulting virus is incubated in the presence of target host cells where intracellular […] activity then becomes a measure of infection. Amplified virus is exposed to target host cells in the presence of a range of test drug concentrations to determine IC50 measurements of entry inhibition. A modification of this test is further reapplied as a novel drug assay used in partnership with a number of pharmaceutical companies to test the effectiveness of novel entry inhibitors that target specific chemokines. It can used to detect activity against T-tropic, M-tropic, and dual-tropic viruses and Monogram Biosciences has a large bank of over 10,000 different virus strains to ultimately asses the range of applicability of our chemokine modulators. Certain compounds are tested to establish efficacy in a number of viral strains.

HIV = conditions: MT-4 cells; read-out: concentration required for 50% protection of HIV-induced cytopathogenicity; cited from earlier work
MT-4 cells = conditions: cited from earlier work
[3] = in vivo; cited from earlier work
[4] = molecular target: hERG (human ether-á-go-go-related gene) potassium channel (Homo sapiens (Human), UniProt Q12809); test: hERG potassium channel current, automatic patch clamp; format: cell-based; conditions: PatchXpress, 5 minutes exposure, room temperature
Chain of hERG (human ether-á-go-go-related gene) potassium channel (Q12809 whole entry): as above
Method: as §1

CXCR4 [5] = molecular target: T1, CXCR4; test: Cellular impedance change induced by SDF-1a (cellular dielectric spectroscopy); format: cell-based; conditions: HeLa cells, endogenous CXCR4, EC50 concentration of SDF-1a, 30 minutes; read-out: Antagonist IC50
Method: This assay measures the change in impedance that occurs when cells are stimulated with SDF-1a. Changes in shape and cytoskeleton result in a change of impedance that is dependent on the activation of the CXCR4 receptor. This assay is contracted to MDS Pharma Services and performed as described in http://discovery.mdsps.com/Catalog/Services/Screening/CellKey/AssayDetails.aspx?id=7 (Assay 930070). Briefly, human HeLa cells expressing endogenous CXCR4 are grown in vitro and receptor activation in live cells is measured using cellular dielectric spectroscopy (CDS).

T1 sequence (P61073 whole entry): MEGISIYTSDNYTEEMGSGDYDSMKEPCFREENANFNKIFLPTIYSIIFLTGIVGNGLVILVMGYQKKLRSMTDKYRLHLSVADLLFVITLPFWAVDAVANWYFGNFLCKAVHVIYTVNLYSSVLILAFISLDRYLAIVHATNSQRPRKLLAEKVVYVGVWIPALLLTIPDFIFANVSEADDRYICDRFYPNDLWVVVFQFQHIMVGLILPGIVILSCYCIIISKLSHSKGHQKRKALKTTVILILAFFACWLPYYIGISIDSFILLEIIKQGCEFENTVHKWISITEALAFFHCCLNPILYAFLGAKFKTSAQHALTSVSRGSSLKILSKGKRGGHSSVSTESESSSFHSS

For `O=C(O)Cn1c2ccccc2c2ccnc(CN(CCCN3CCNCC3)[C@H]3CCCc4cccnc43)c21` [drawing 828], the IC50 (CXCR4 [1]) was 113 nM, the EC50 at 6 days [2] was greater than 10000 nM and the inhibition at 5 min, 10 µM (hERG potassium channel) was 20%.
Work on `c1ccc(-n2cc(CN(CCCCNCc3ccccn3)C3CCCc4cccnc43)nn2)cc1` (stereo not drawn) [AB, N1-((1-phenyl-1H-1,2,3-triazol-4-yl)methyl)-N4-(pyridin-2-ylmethyl)-N1-(5,6,7,8-tetrahydroquinolin-8-yl)butane-1,4-diamine hydrochloride] yielded an IC50 (T-tropic HIV) of no more than 10000 nM.
For `NCCCCN(Cc1nccc2c3ccccc3n(CC(=O)NC3CCNCC3)c12)C1CCCc2cccnc21` (stereo not drawn) [drawing 821], the IC50 (CXCR4 [1]) was 126 nM, the EC50 at 6 days [2] was 30000 nM and the inhibition at 5 min, 10 µM (hERG potassium channel) was 16%.
In the case of `NCCCCN(Cc1cccc2cc[nH]c12)C1CCCc2cccnc21` (stereo not drawn) [B, N1-((1H-indol-7-yl)methyl)-N1-(5,6,7,8-tetrahydroquinolin-8-yl)butane-1,4-diamine], the IC50 (T-tropic HIV) is reported as no more than 10000 nM.
For TN14003, the EC50 (HIV) is given as 0.6 nM and the “concentration leading to 50% toxicity” value (MT-4 cells) is given as 410.
`O=C(Cn1c2ccccc2c2ccnc(CN(CCCN3CCNCC3)[C@H]3CCCc4cccnc43)c21)C1CCOCC1` showed an IC50 (CXCR4 [1]) of 44 nM, an EC50 at 6 days [2] of 30000 nM and an inhibition at 5 min, 10 µM (hERG potassium channel) of 25%.
For `c1cc(CN2CCCNCCNCCCNCC2)ccc1CN1CCCNCCNCCCNCC1` [AMD3100], the “side effect in clinical study” value [3] is given as “cardiac-related side effect”.
`NCCCCN(Cc1nccc2c3ccccc3n(CC(=O)N3CCOCC3)c12)[C@H]1CCCc2cccnc21` [drawing 819] gave an IC50 (CXCR4 [1]) of 12 nM, an EC50 at 6 days [2] of 30000 nM and an inhibition at 5 min, 10 µM (hERG potassium channel) of 42%.
`c1cnc2c(c1)CCCC2N(CCCN1CCNCC1)Cc1nccc2c3ccccc3n(CCN3CCOCC3)c12` (stereo not drawn) [drawing 830] gave an IC50 (CXCR4 [1]) of 24 nM and an IC50 [4] of 3100 nM.
Work on `NCCCCN(Cc1cn(-c2ccccc2)nn1)C1CCCc2cccnc21` (stereo not drawn) [Z, N-(4-aminobutyl)-N-((1-phenyl-1H-1,2,3-triazol-4-yl)methyl)-5,6,7,8-tetrahydro-quinolin-8-amine tetrahydrochloride] yielded an IC50 (T-tropic HIV) of no more than 10000 nM.
Compound `CN1CCN(C(=O)Cn2c3ccccc3c3ccnc(CN(CCCCN)[C@H]4CCCc5cccnc54)c32)CC1` [drawing 823] has an IC50 (CXCR4 [1]) of 30 nM, an EC50 at 6 days [2] of 50000 nM and an inhibition at 5 min, 10 µM (hERG potassium channel) of 39%.
For `CC(C)(C)OC(=O)Cn1c2ccccc2c2ccnc(CN(CCCN3CCNCC3)[C@H]3CCCc4cccnc43)c21` [drawing 825], the IC50 (CXCR4 [1]) was 37 nM, the EC50 at 6 days [2] was 600 nM and the inhibition at 5 min, 1 µM (hERG potassium channel) was 26%.
With `CC(C)CN(CCC[C@H](NC1CCCc2cccnc21)C(=O)N[C@H](C)c1cccc2ccccc12)CC(C)C` (stereo partly drawn) [AY, (S)-5-(diisobutylamino)-N-((R)-1-(naphthalen-1-yl)ethyl)-2-(5,6,7,8-tetrahydroquinolin-8-ylamino)pentanamide trihydrochloride] the IC50 (T-tropic HIV) was no more than 10000 nM.
`NCCCCN(Cc1nccc2c1[nH]c1ccccc12)C1CCCc2cccnc21` (stereo not drawn) [A, N-((9H-pyrido[3,4-b]indol-1-yl)methyl)-N-(4-aminobutyl)-5,6,7,8-tetrahydroquinolin-8-amine tetrahydrochloride] showed an IC50 (T-tropic HIV) of no more than 10000 nM.
In the case of `NCCCCN(Cc1nccc2c3ccccc3n(CCCN)c12)[C@H]1CCCc2cccnc21` [drawing 827], the IC50 (CXCR4 [1]) is reported as 7 nM, the EC50 at 6 days [2] is reported as 6400 nM and the inhibition at 5 min, 10 µM (hERG potassium channel) is reported as 46%.
`NCCCCN(Cc1nccc2c3ccccc3n(CCN3CCNCC3)c12)[C@H]1CCCc2cccnc21` [drawing 829] gave an IC50 (CXCR4 [1]) of 55 nM, an EC50 at 6 days [2] greater than 10000 nM and an inhibition at 5 min, 10 µM (hERG potassium channel) of 45%.
With `NCCCCN(Cc1nccc2c3ccccc3n(CC(=O)O)c12)[C@H]1CCCc2cccnc21` [drawing 820] the IC50 (CXCR4 [1]) was 22 nM, the EC50 at 6 days [2] was 30000 nM and the IC50 [4] was 2700 nM.
In the case of `C[C@@H]1CN(C(=O)Cn2c3ccccc3c3ccnc(CN(CCCCN)[C@H]4CCCc5cccnc54)c32)C[C@H](C)O1` [drawing 826], the IC50 (CXCR4 [1]) is reported as 123 nM, the EC50 at 6 days [2] is reported as 5300 nM and the inhibition at 5 min, 1 µM (hERG potassium channel) is reported as 18%.
Work on `NCCCCN(Cc1nccc2c3ccccc3n(CC(=O)N3CCOCC3)c12)C1CCCc2cccnc21` (stereo not drawn) yielded an IC50 (CXCR4 [5]) of 5.6 nM.
For `NCCCCN(Cc1nccc2c3ccccc3n(CCN3CCOCC3)c12)C1CCCc2cccnc21` (stereo not drawn), the IC50 (CXCR4 [5]) was 7.7 nM.
In the case of `NCCCCN(Cc1nccc2c3ccccc3n(CCCN3CCNCC3)c12)[C@H]1CCCc2cccnc21` [drawing 822], the IC50 (CXCR4 [1]) is reported as 16 nM, the EC50 at 6 days [2] is reported as 30000 nM and the IC50 [4] is reported as 4100 nM.
Compound `CN(Cc1nnc(-c2ccccc2)n1C)C1CCCc2cccnc21` (stereo not drawn) [BP, N-methyl-N-((4-methyl-5-phenyl-4H-1,2,4-triazol-3-yl)methyl)-5,6,7,8-tetrahydroquinolin-8-amine] has an IC50 (T-tropic HIV) of no more than 10000 nM.
Compound `NCCCCN(Cc1nccc2c3ccccc3n(CC(N)=O)c12)[C@H]1CCCc2cccnc21` [drawing 832] has an IC50 (CXCR4 [1]) of 18 nM and an IC50 [4] of 1800 nM.
With `NCCCCN(Cc1nccc2c3ccccc3n(CCN3CCNCC3)c12)C1CCCc2cccnc21` (stereo not drawn) the IC50 (CXCR4 [5]) was 5.7 nM.
`NCCCCN(Cc1nccc2c3ccccc3n(CCCN3CCNCC3)c12)C1CCCc2cccnc21` (stereo not drawn) gave an IC50 (CXCR4 [5]) of 8.3 nM.
`NCCCCN(Cc1nccc2c3ccccc3n(CCCN)c12)C1CCCc2cccnc21` (stereo not drawn) showed an IC50 (CXCR4 [5]) of 7.3 nM.
